Assays:
D. immitis Slo-1 = D. immitis Slo-1 (Dirofilaria immitis, UniProt I0DFK5); test: D. immitis Slo-1, action at a recombinant CHO cell line (membrane potential, FLIPR); type: cell-based
[1] = test system: Nippostrongylus brasiliensis; test: Nippostrongylus brasiliensis (NIPOBR) adult worms, acetylcholine esterase readout; conditions: read-out: activity (reduction of AChE compared to negative control); for inhibition at 1 µg/mL: at 1 μg/ml (1 ppm); for inhibition at 10 µg/mL: at 10 μg/ml (10 ppm)
Method: In Vitro Assay 3: Nippostrongylus brasiliensis (NIPOBR)
Adult Nippostrongylus brasiliensis were washed with saline buffer containing 100 U/ml penicillin, 0.1 mg/ml streptomycin and 2.5 μg/ml amphotericin B. Test compounds were dissolved in DMSO and worms were incubated in medium in a final concentration of 10 μg/ml (10 ppm) respectively 1 μg/ml (1 ppm). An aliquot of the medium was used to determine the acetylcholine esterase activity in comparison to a negative control. The principle of measuring acetylcholine esterase as readout for anthelmintic activity was described in Rapson et al (1986) and Rapson et al (1987).

[2] = test system: Dirofilaria immitis microfilariae; test: Dirofilaria immitis microfilariae (DIROIM L1) motility; conditions: 72 h, read-out: EC50 (reduction of motility)
Dirofilaria immitis = Dirofilaria immitis (DIROIM L4) larval motility; conditions: 72 h, read-out: EC50 (reduction of motility)
C. elegans Slo-1a = C. elegans Slo-1a (Caenorhabditis elegans, UniProt Q95V25); conditions: pE50 (negative decadic logarithm of EC50), CHO cells expressing C. elegans Slo-1a; voltage sensitive dye, 70 mM KCl
C. elegans Slo-1a, sequence (Q95V25 whole entry): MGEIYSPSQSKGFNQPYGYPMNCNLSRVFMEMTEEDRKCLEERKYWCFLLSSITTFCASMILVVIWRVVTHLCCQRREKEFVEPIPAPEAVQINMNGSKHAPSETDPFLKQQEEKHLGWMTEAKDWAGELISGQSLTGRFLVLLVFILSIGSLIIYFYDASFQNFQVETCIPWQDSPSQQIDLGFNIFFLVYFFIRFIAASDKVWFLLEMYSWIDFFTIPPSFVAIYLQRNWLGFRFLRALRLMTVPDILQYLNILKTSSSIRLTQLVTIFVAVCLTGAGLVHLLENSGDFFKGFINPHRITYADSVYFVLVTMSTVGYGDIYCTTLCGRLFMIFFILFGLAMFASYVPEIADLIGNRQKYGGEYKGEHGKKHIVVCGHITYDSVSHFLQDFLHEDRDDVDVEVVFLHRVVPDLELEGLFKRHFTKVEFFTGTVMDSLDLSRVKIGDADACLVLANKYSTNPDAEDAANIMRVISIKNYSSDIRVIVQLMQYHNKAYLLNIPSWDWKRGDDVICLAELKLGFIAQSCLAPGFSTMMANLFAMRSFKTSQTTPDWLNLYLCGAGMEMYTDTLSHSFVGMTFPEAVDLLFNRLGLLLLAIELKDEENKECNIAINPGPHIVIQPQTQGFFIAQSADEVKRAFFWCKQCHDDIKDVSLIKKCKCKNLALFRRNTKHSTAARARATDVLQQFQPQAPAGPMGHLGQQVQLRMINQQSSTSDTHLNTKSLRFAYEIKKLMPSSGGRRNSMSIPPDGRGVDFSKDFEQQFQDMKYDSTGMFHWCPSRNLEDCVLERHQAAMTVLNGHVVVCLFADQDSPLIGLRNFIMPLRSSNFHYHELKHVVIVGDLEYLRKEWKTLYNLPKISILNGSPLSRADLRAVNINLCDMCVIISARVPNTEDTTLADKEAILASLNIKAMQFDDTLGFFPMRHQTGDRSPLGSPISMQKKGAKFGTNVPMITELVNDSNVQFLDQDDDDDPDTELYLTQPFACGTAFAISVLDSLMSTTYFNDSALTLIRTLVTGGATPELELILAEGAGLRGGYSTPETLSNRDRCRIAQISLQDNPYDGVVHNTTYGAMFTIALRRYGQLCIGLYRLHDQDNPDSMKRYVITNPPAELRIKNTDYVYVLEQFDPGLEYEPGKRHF
Method: Generation of a Stable C. elegans CHO Cell Line
A CHO cell line was obtained from ATCC, code ATCC CRL-9096. […] The transfection solution included 300 μL OptiMEM (Life Technologies, Nr.: 31985), 2 μL (=6 μg) of plasmid DNA containing the C. elegans Slo 1a gene and 9 μL FugeneHD (Promega, Nr.: E2311), and was added to the cells prior to incubation for 48 hours at 37° C., 5% CO2. The transfection medium was exchanged for the selection medium which contains additional G418 (2 mg/ml, Invitrogen, Nr.: 10131) and the cells were seeded into 384 well plates (300 cells/well). After a few weeks, the remaining surviving cells were tested with a voltage sensitive dye (Membrane Potential Assay Kit, Molecular Devices Nr.: R8034) for K+ channel expression. Positive cell clones were purified by the limited dilution technique. For this the clone with the highest and most robust signal in the voltage sensitive dye assay was further subcloned (incubated) in 384 well plates (0.7 cells/well) in order to obtain clonal purity. This generated a final stable CHO cell line expressing the C. elegans Slo-1a.
Cells were cultured at 37° C. and 5% CO2 in MEMalpha with Gutamax I (Invitrogen, Nr.: 32571), supplemented with 10% (v/v) heat inactivated fetal bovine serum (Invitrogen, Nr.: 10500), G418 (1 mg/ml, Invitrogen, Nr.: 10131). Cells were detached using Accutase (Sigma, Nr.: A6964).
Membrane Potential Measurements
Laboratory compound testing was performed on 384-well microtiter plates (MTPs, Greiner, Nr.: 781092). 8000 cells/well were plated onto 384-well MTPs and cultured for 20 to 24 hours at 37° C. and 5% CO2. After removal of the cell culture medium, the cells were washed once with tyrode (150 mM NaCl, 0.3 mM KCl, 2 mM CaCl2, 1 mM MgCl2, 0.8 mM NaH2PO4, 5 mM Glucose, 28 mM Hepes, pH 7.4) and then loaded with the voltage sensitive dye of the Membrane Potential Assay Kit diluted in tyrode for 1 h at room temperature.
After starting the measurement of fluorescence using a FLIPR Tetra (Molecular Devices, Exc. 510-545 nm, Emm. 565-625 nm), test compounds were added followed by the addition of KCl tyrode (final assay concentration: 70 mM KCl, 2 mM CaCl2, 1 mM MgCl2, 0.8 mM NaH2PO4, 5 mM Glucose, 28 mM Hepes, pH 7.4, including the voltage sensitive dye). The measurement was completed after 7 minutes.
The data were evaluated by using the ActivityBase XLfit software (IDBS) for curve fitting and calculation of the half-maximal effective concentration (EC50) and are reported as negative decadic logarithm (pE50).

Cooperia curticei = Cooperia curticei larval mortality; conditions: 120 h, read-out: activity (percentage of larval mortality)
Method: In Vitro Assay 6: Cooperia curticei
Solvent: Dimethyl Sulfoxide
Approximately 40 nematode larvae (Cooperia curticei) are transferred into a test tube containing the compound solution.
After 5 days percentage of larval mortality is recorded. 100% efficacy means all larvae are killed; 0% efficacy means no larvae are killed.

Haemonchus contortus = Haemonchus contortus larval mortality; conditions: 120 h, read-out: activity (percentage of larval mortality)
Method: In Vitro Assay 7: Haemonchus contortus
Solvent: Dimethyl Sulfoxide
Approximately 40 larvae of the red stomach worm (Haemonchus contortus) are transferred into a test tube containing compound solution.
After 5 days the percentage of larval mortality is recorded. 100% efficacy means all larvae are killed, 0% efficacy means no larvae are killed.

D. immitis Slo-1, sequence (I0DFK5 1-1119): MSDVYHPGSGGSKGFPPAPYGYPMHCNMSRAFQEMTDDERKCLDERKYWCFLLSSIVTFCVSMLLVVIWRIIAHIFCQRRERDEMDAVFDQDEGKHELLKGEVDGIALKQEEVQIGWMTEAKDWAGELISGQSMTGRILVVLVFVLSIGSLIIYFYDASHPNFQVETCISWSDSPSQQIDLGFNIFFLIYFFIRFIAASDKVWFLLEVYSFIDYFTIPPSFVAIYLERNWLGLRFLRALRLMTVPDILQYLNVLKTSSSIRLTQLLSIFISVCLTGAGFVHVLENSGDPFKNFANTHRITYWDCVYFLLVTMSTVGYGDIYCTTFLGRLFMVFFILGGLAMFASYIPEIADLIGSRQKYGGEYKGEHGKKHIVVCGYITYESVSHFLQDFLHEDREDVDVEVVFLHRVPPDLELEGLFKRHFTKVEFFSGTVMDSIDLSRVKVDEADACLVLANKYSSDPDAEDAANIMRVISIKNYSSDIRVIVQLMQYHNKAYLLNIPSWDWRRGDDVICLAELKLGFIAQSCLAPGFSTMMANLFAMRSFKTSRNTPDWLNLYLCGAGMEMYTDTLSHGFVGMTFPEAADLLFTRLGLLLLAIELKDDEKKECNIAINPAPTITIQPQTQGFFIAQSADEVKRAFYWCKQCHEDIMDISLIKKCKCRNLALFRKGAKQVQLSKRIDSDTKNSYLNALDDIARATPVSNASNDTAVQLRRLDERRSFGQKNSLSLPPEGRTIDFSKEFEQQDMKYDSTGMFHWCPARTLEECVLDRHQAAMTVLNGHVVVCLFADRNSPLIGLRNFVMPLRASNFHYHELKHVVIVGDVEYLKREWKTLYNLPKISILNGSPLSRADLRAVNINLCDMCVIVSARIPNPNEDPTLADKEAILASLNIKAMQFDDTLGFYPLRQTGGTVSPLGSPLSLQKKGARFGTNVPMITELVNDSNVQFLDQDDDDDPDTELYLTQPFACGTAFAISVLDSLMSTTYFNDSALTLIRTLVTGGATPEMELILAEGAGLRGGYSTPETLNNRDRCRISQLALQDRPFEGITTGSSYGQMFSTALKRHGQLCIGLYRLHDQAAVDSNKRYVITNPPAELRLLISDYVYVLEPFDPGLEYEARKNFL

Compound: O=C(N[C@H]1CCOc2ccccc21)c1cnc2c(-c3cccc(Cl)c3Cl)ncc(F)c2c1N1CCOCC1 [Example T1-7, 8-(2,3-dichlorophenyl)-N-[(4S)-3,4-dihydro-2H-1-benzopyran-4-yl]-5-fluoro-4-(morpholin-4-yl)-1,7-naphthyridine-3-carboxamide]
- EC50 (D. immitis Slo-1): 3.16 to 31.6 nM
- inhibition at 1 µg/mL [1]: > 80%
- inhibition at 10 µg/mL [1]: > 80%
- EC50 [2]: < 0.1 µg/mL
- EC50 (Dirofilaria immitis): < 0.1 µg/mL
- EC50 (C. elegans Slo-1a): < 3.16 nM

Compound: COc1cnc(-c2cc(F)cc(F)c2F)c2ncc(C(=O)N[C@H]3CCOc4ccccc43)c(N3CCOCC3)c12 [Example T1-9, N-[(4S)-3,4-dihydro-2H-1-benzopyran-4-yl]-5-methoxy-4-(morpholin-4-yl)-8-(2,3,5-trifluorophenyl)-1,7-naphthyridine-3-carboxamide]
- EC50 (D. immitis Slo-1): 31.6 to 316 nM
- inhibition at 1 µg/mL [1]: > 80%
- inhibition at 10 µg/mL [1]: > 80%
- EC50 (Dirofilaria immitis): < 0.1 µg/mL
- EC50 (C. elegans Slo-1a): 3.16 to 31.6 nM

Compound: COc1cnc(-c2cccc(Cl)c2Cl)c2ncc(C(=O)N[C@H]3CCOc4ccccc43)c(N(C)C)c12 [Example T1-11, 8-(2,3-dichlorophenyl)-N-[(4S)-3,4-dihydro-2H-1-benzopyran-4-yl]-4-(dimethylamino)-5-methoxy-1,7-naphthyridine-3-carboxamide]
- EC50 (D. immitis Slo-1): 31.6 to 316 nM
- inhibition at 1 µg/mL [1]: > 80%
- inhibition at 10 µg/mL [1]: > 80%
- EC50 [2]: < 0.1 µg/mL
- EC50 (Dirofilaria immitis): < 0.1 µg/mL
- EC50 (C. elegans Slo-1a): 3.16 to 31.6 nM

Compound: COc1cnc(-c2cccc(Cl)c2Cl)c2ncc(C(=O)N[C@H]3CCOc4ccccc43)c(N3CCOCC3)c12 [Example T1-14, 8-(2,3-dichlorophenyl)-N-[(4S)-3,4-dihydro-2H-1-benzopyran-4-yl]-5-methoxy-4-(morpholin-4-yl)-1,7-naphthyridine-3-carboxamide]
- EC50 (D. immitis Slo-1): 31.6 to 316 nM
- inhibition at 1 µg/mL [1]: > 80%
- inhibition at 10 µg/mL [1]: > 80%
- EC50 [2]: < 0.1 µg/mL
- EC50 (Dirofilaria immitis): < 0.1 µg/mL
- EC50 (C. elegans Slo-1a): 3.16 to 31.6 nM

Compound: O=C(N[C@H]1CCOc2ccccc21)c1cnc2c(-c3cc(Cl)cc(Cl)c3)cncc2c1N1CCOCC1 [Example T2-4, 8-(3,5-Dichlorophenyl)-N-[(4S)-3,4-dihydro-2H-chromen-4-yl]-4-(morpholin-4-yl)-1,6-naphthyridine-3-carboxamide]
- EC50 (D. immitis Slo-1): 31.6 to 316 nM
- inhibition at 1 µg/mL [1]: > 80%
- EC50 [2]: < 0.1 µg/mL
- EC50 (Dirofilaria immitis): < 0.1 µg/mL
- EC50 (C. elegans Slo-1a): 3.16 to 31.6 nM

Compound: COc1ncc(-c2cccc(Cl)c2Cl)c2ncc(C(=O)N[C@H]3CCOc4ccccc43)c(N3CCOCC3)c12 [Example T2-11, 8-(2,3-dichlorophenyl)-N-[(4S)-3,4-dihydro-2H-1-benzopyran-4-yl]-5-methoxy-4-(morpholin-4-yl)-1,6-naphthyridine-3-carboxamide]
- EC50 (D. immitis Slo-1): 31.6 to 316 nM
- inhibition at 1 µg/mL [1]: > 80%
- inhibition at 10 µg/mL [1]: > 80%
- EC50 [2]: < 0.1 µg/mL
- EC50 (Dirofilaria immitis): < 0.1 µg/mL
- EC50 (C. elegans Slo-1a): < 3.16 nM

Compound: O=C(N[C@H]1CCOc2ccccc21)c1cnc2c(-c3cc(Cl)cc(Cl)c3)ccnc2c1N1CCOCC1 [Example T3-2, 8-(3,5-Dichlorophenyl)-N-[(4S)-3,4-dihydro-2H-chromen-4-yl]-4-(morpholin-4-yl)-1,5-naphthyridine-3-carboxamide]
- EC50 [2]: < 0.1 µg/mL
- EC50 (Dirofilaria immitis): < 0.1 µg/mL
- mortality at 4 ppm (Cooperia curticei): 90%
- mortality at 20 ppm (Cooperia curticei): 90%
- mortality at 20 ppm (Haemonchus contortus): 90%
- EC50 (C. elegans Slo-1a): 3.16 to 31.6 nM

Compound: CN(C)c1c(C(=O)N[C@H]2CCOc3ccccc32)cnc2c(-c3cc(Cl)cc(Cl)c3)ncnc12 [Example T4-1, 4-(3,5-Dichlorophenyl)-N-[(4S)-3,4-dihydro-2H-chromen-4-yl]-8-(dimethylamino)-pyrido[3,2-d]pyrimidine-7-carboxamide]
- EC50 (D. immitis Slo-1): 31.6 to 316 nM
- inhibition at 1 µg/mL [1]: > 80%
- inhibition at 10 µg/mL [1]: > 80%
- EC50 [2]: < 0.1 µg/mL
- EC50 (Dirofilaria immitis): < 0.1 µg/mL
- mortality at 20 ppm (Cooperia curticei): 80%
- EC50 (C. elegans Slo-1a): 3.16 to 31.6 nM

Compound: O=C(N[C@H]1CCOc2ccccc21)c1cnc2c(-c3cc(Cl)cc(Cl)c3)ncnc2c1N1CCOCC1 [Example T4-2, 4-(3,5-Dichlorophenyl)-N-[(4S)-3,4-dihydro-2H-chromen-4-yl]-8-(morpholin-4-yl)pyrido[3,2-d]pyrimidine-7-carboxamide]
- EC50 (D. immitis Slo-1): 31.6 to 316 nM
- inhibition at 1 µg/mL [1]: > 80%
- inhibition at 10 µg/mL [1]: > 80%
- EC50 [2]: < 0.1 µg/mL
- EC50 (Dirofilaria immitis): < 0.1 µg/mL
- EC50 (C. elegans Slo-1a): 3.16 to 31.6 nM

Compound: CN(C)c1c(C(=O)N[C@H]2CCOc3ccccc32)nnc2c(-c3cc(Cl)cc(Cl)c3)cccc12 [Example T5-1, 8-(3,5-Dichlorophenyl)-N-[(4S)-3,4-dihydro-2H-chromen-4-yl]-4-(dimethylamino)cinnoline-3-carboxamide]
- EC50 (D. immitis Slo-1): 31.6 to 316 nM
- inhibition at 1 µg/mL [1]: > 80%
- EC50 [2]: < 0.1 µg/mL
- EC50 (Dirofilaria immitis): < 0.1 µg/mL
- EC50 (C. elegans Slo-1a): < 3.16 nM

Compound: CN(C)c1c(C(=O)N[C@H]2CCOc3ccccc32)nnc2c(-c3cccc(Cl)c3)cccc12 [Example T5-2, 8-(3-Chlorophenyl)-N-[(4S)-3,4-dihydro-2H-chromen-4-yl]-4-(dimethylamino)cinnoline-3-carboxamide]
- EC50 (D. immitis Slo-1): 31.6 to 316 nM
- EC50 [2]: < 0.1 µg/mL
- mortality at 20 ppm (Cooperia curticei): 80%
- mortality at 20 ppm (Haemonchus contortus): 80%
- EC50 (C. elegans Slo-1a): 3.16 to 31.6 nM

Compound: CN(C)c1c(C(=O)N[C@H]2CCOc3ccccc32)nnc2c(-c3cccc(Cl)c3Cl)cccc12 [Example T5-3, 8-(2,3-Dichlorophenyl)-N-[(4S)-3,4-dihydro-2H-chromen-4-yl]-4-(dimethylamino)cinnoline-3-carboxamide]
- EC50 (D. immitis Slo-1): 3.16 to 31.6 nM
- inhibition at 1 µg/mL [1]: > 80%
- EC50 [2]: < 0.1 µg/mL
- EC50 (Dirofilaria immitis): < 0.1 µg/mL
- mortality at 20 ppm (Cooperia curticei): 80%
- EC50 (C. elegans Slo-1a): < 3.16 nM

Compound: COc1c(C(=O)N[C@H]2CCOc3ccccc32)nnc2c(-c3cccc(Cl)c3)cccc12 [Example T5-6, 8-(3-Chlorophenyl)-N-[(4S)-3,4-dihydro-2H-chromen-4-yl]-4-methoxycinnoline-3-carboxamide]
- EC50 (D. immitis Slo-1): 31.6 to 316 nM
- EC50 [2]: < 0.1 µg/mL
- mortality at 20 ppm (Cooperia curticei): 80%
- EC50 (C. elegans Slo-1a): 3.16 to 31.6 nM

Compound: COc1c(C(=O)N[C@H]2CCOc3ccccc32)nnc2c(-c3ccc(F)c(F)c3)cccc12 [Example T5-8, 8-(3,4-Difluorophenyl)-N-[(4S)-3,4-dihydro-2H-chromen-4-yl]-4-methoxycinnoline-3-carboxamide]
- EC50 (D. immitis Slo-1): 31.6 to 316 nM
- EC50 [2]: < 0.1 µg/mL
- EC50 (C. elegans Slo-1a): 3.16 to 31.6 nM

Compound: O=C(N[C@H]1CCOc2ccccc21)c1cnc2c(-c3cccc(Cl)c3Cl)cnnc2c1N1CCOCC1 [Example T6-2, 4-(2,3-Dichlorophenyl)-N-[(4S)-3,4-dihydro-2H-chromen-4-yl]-8-(morpholin-4-yl)pyrido[3,2-c]pyridazine-7-carboxamide]
- inhibition at 1 µg/mL [1]: > 80%
- EC50 [2]: < 0.1 µg/mL
- mortality at 20 ppm (Cooperia curticei): 90%
- EC50 (C. elegans Slo-1a): 31.6 to 316 nM

Compound: CN(C)c1c(C(=O)N[C@H]2CCOc3ccccc32)cnc2c(-c3cc(Cl)cc(Cl)c3)cnnc12 [Example T6-3, 4-(3,5-Dichlorophenyl)-N-[(4S)-3,4-dihydro-2H-chromen-4-yl]-8-(dimethylamino)pyrido[3,2-c]pyridazine-7-carboxamide]
- EC50 (D. immitis Slo-1): 31.6 to 316 nM
- inhibition at 1 µg/mL [1]: > 80%
- EC50 [2]: < 0.1 µg/mL
- EC50 (Dirofilaria immitis): < 0.1 µg/mL
- mortality at 20 ppm (Haemonchus contortus): 90%
- EC50 (C. elegans Slo-1a): 3.16 to 31.6 nM

Compound: O=C(N[C@H]1CCOc2ccccc21)c1cnc2c(-c3cc(Cl)cc(Cl)c3)cnnc2c1N1CCOCC1 [Example T6-4, 4-(3,5-Dichlorophenyl)-N-[(4S)-3,4-dihydro-2H-chromen-4-yl]-8-(morpholin-4-yl)pyrido[3,2-c]pyridazine-7-carboxamide]
- EC50 (D. immitis Slo-1): 31.6 to 316 nM
- mortality at 20 ppm (Cooperia curticei): 90%
- mortality at 20 ppm (Haemonchus contortus): 80%
- EC50 (C. elegans Slo-1a): 31.6 to 316 nM

— patent publication US11485733B2, “Azaquinoline derivatives” (BAYER ANIMAL HEALTH GMBH, priority 2017, dated 2022)
